Test results published in patent US20250215029A1 (Recludix Pharma, Inc., priority 2022, published 2025).
Where two headings read alike, the source gives them in different places.

Tests used:
[1] = biological target: T1, Recombinant STAT6 protein (STAT6 (W123-T658)) (Homo sapiens, UniProt P42226); assay: STAT6 Fluorescence Polarization (FP) Assay; format: binding; conditions: 45-minute incubation
T1 construct: Recombinant STAT6 protein (STAT6 (W123-T658))
T1 sequence (P42226 123-658): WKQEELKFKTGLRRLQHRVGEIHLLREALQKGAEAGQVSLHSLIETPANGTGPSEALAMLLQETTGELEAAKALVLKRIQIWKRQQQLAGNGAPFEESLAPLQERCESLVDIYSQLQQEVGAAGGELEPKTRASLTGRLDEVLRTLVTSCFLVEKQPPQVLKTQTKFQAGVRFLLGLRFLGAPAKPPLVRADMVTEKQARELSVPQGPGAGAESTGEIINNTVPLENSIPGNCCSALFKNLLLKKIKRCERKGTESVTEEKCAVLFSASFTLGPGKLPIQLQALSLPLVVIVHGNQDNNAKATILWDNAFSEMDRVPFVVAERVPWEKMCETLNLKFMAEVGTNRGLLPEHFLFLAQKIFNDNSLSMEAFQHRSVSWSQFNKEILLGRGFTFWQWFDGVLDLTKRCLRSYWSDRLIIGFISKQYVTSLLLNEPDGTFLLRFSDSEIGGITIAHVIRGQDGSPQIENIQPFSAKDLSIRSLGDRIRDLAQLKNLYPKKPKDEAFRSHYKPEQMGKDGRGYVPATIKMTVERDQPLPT
Method in brief: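 Fluorescence polarization (mP) read-out: 250 nM STAT6 (W123-T658) plus 2 nM 5-FAM phosphotyrosine peptide, 45 min, room temperature, 1% DMSO. IC50 by nonlinear fit of mP against log compound concentration.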

[2] = biological target: T2, Recombinant STAT3 protein (STAT3 (G127-I722)) (Homo sapiens, UniProt P40763); assay: STAT3 Fluorescence Polarization (FP) Assay; format: binding; conditions: probe 5-FAM-GpYLPQTV-NH2 2 nM, 45-minute incubation
T2 construct: Recombinant STAT3 protein (STAT3 (G127-I722))
Method in brief: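 Displacement of a 2 nM 5-FAM-labelled pY peptide (GpYLPQTV) from 25 nM recombinant STAT3 (G127-I722) was monitored by fluorescence polarization. Incubation lasted 45 min at room temperature in pH 7.4 HEPES buffer containing 1% DMSO.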

[3] = STAT6 (W123-T658) 250 nM, probe 5-FAM-Ap[…]-NH2 2 nM, read-out: STAT6 (FP assay IC50 class)
[4] = STAT3 (G127-I722) 25 nM, read-out: STAT3 (FP assay IC50 class)
[5] = STAT6 250 nM, probe 5-FAM-Ap[…]-NH2 2 nM, read-out: STAT6 (FP assay IC50)
[6] = STAT3 25 nM, read-out: STAT3 (FP assay IC50)

T2 sequence (P40763 127-722): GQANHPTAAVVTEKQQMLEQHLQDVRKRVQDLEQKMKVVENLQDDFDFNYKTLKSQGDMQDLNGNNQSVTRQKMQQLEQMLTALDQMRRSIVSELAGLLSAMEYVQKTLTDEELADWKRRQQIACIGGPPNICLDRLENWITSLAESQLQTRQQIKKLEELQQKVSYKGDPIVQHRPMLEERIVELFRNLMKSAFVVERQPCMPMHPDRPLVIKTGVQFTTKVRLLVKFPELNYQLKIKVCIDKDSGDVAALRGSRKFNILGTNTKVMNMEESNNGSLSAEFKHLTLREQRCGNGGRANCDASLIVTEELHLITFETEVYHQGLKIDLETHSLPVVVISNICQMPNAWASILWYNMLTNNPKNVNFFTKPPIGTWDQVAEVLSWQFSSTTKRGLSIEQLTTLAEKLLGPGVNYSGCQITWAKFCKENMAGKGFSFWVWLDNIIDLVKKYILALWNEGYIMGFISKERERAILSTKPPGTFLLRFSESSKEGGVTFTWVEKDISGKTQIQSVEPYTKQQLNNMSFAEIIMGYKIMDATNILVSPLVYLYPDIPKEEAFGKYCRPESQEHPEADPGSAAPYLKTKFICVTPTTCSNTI

IC50 [1, 3] [nM]	IC50 [2, 4] [nM]	IC50 [1, 5] [nM]	IC50 [2, 6] [nM]	Compound	IC50 ([1]; STAT6 (W123-T658) 250 nM, probe 5-FAM-ApYKPFQDLI-NH2 2 nM, read-out: STAT6 (FP assay IC50 class)) [nM]
300 to 3000	100 to 1000			CN(Cc1cc(=O)[nH]c2ccccc12)C(=O)[C@@H]1CC[C@@H]2CCCC[C@H](NC(=O)c3cc4cc(C(F)(F)P(=O)(O)O)ccc4s3)C(=O)N21 [Compound 795, (difluoro(2-(((3S,6S,10aS)-3-(methyl((2-oxo-1,2-dihydroquinolin-4-yl)methyl)carbamoyl)-5-oxodecahydropyrrolo [1,2-a]azocin-6-yl)carbamoyl)benzo [b]thiophen-5-yl)methyl) phosphonic acid]	
300 to 3000	< 100			Cc1ccncc1C1CN(C(=O)[C@@H]2CC[C@@H]3CCCC[C@H](NC(=O)c4cc5cc(C(F)(F)P(=O)(O)O)ccc5s4)C(=O)N32)C1 [Compound 499, (difluoro(2-(((3S,6S,10aS)-3-(3-(4-methylpyridin-3-yl)azetidine-1-carbonyl)-5-oxodecahydropyrrolo[1,2-a]azocin-6-yl)carbamoyl)benzo[b]thiophen-5-yl)methyl)phosphonic acid]	
300 to 3000	100 to 1000			Cc1nnc(C2CN(C(=O)[C@@H]3CC[C@@H]4CCC[C@H](NC(=O)c5cc6cc(C(F)(F)P(=O)(O)O)ccc6s5)C(=O)N43)CCO2)o1 (stereo partly drawn) [Compound 1127, (difluoro(2-(((3S,6S,9aS)-3-(2-(5-methyl-1,3,4-oxadiazol-2-yl)morpholine-4-carbonyl)-5-oxooctahydro-1H-pyrrolo[1,2-a]azepin-6-yl)carbamoyl)benzo[b]thiophen-5-yl)methyl)phosphonic acid]	
300 to 3000	< 100			Cc1ncccc1C1CN(C(=O)[C@@H]2CC[C@@H]3CCC[C@H](NC(=O)c4cc5cc(C(F)(F)P(=O)(O)O)ccc5s4)C(=O)N32)C1 [Compound 775, (difluoro(2-(((3S,6S,9aS)-3-(3-(2-methylpyridin-3-yl)azetidine-1-carbonyl)-5-oxooctahydro-1H-pyrrolo[1,2-a]azepin-6-yl)carbamoyl)benzo [b]thiophen-5-yl)methyl) phosphonic acid]	
3000 to 30000	< 100			O=C(N[C@H]1CCC[C@H]2CC[C@@H](C(=O)N3CC(c4cnccc4N4CCOCC4)C3)N2C1=O)c1cc2cc([C@@H](F)P(=O)(O)O)ccc2s1 (single isomer, unassigned) [Compound 745]	
3000 to 30000	100 to 1000			O=C(N[C@H]1CCC[C@H]2CC[C@@H](C(=O)N3CC(c4cnccn4)C3)N2C1=O)c1cc2cc(C(F)(F)P(=O)(O)O)ccc2s1 [Compound 797, (difluoro(2-(((3S,6S,9aS)-5-oxo-3-(3-(pyrazin-2-yl)azetidine-1-carbonyl)octahydro-1H-pyrrolo[1,2-a]azepin-6-yl)carbamoyl)benzo [b]thiophen-5-yl)methyl) phosphonic acid]	
3000 to 30000	< 100			C[C@@H]1CC[C@H](NC(=O)c2cc3cc(CP(=O)(O)O)ccc3s2)C(=O)N2[C@H](CC[C@H]2C(=O)N2CC(c3cnccc3F)C2)C1 [Compound 603, ((2-(((3S,6S,9R,10aR)-3-(3-(4-fluoropyridin-3-yl)azetidine-1-carbonyl)-9-methyl-5-oxodecahydropyrrolo [1,2-a]azocin-6-yl)carbamoyl)benzo [b]thiophen-5-yl)methyl) phosphonic acid]	
3000 to 30000	100 to 1000			O=C(N[C@H]1CCC[C@H]2CC[C@@H](C(=O)N3CC(c4cncc(F)c4)C3)N2C1=O)c1cc2cc(C(F)P(=O)(O)O)ccc2s1 (stereo partly drawn) [Compound 596, (fluoro(2-(((3S,6S,9aS)-3-(3-(5-fluoropyridin-3-yl)azetidine-1-carbonyl)-5-oxooctahydro-1H-pyrrolo[1,2-a]azepin-6-yl)carbamoyl)benzo [b]thiophen-5-yl)methyl) phosphonic acid]	
		300 to 3000	100 to 1000	C[C@]1(NC(=O)c2cc3cc(C(F)(F)P(=O)(O)O)ccc3s2)CCCC[C@H]2CC[C@@H](C(=O)N3C[C@H](c4ccccc4)[C@@H](C#N)C3)N2C1=O (relative stereo) [Compound 84, ((2-(((3S,6S,10aS)-3-(rel-(trans)-3-cyano-4-phenylpyrrolidine-1-carbonyl)-6-methyl-5-oxodecahydropyrrolo [1,2-a]azocin-6-yl)carbamoyl)benzo[b]thiophen-5-yl)difluoromethyl) phosphonic acid]	
		3000 to 30000	< 100	C[C@]1(NC(=O)c2cc3cc(C(F)(F)P(=O)(O)O)ccc3s2)CCCC[C@H]2CC[C@@H](C(=O)N3CC(c4ccccn4)C3)N2C1=O [Compound 85, (difluoro(2-(((3S,6S,10aS)-6-methyl-5-oxo-3-(3-(pyridin-2-yl)azetidine-1-carbonyl)decahydropyrrolo [1,2-a]azocin-6-yl)carbamoyl)benzo[b]thiophen-5-yl)methyl) phosphonic acid]	
		300 to 3000	100 to 1000	CN(C)S(=O)(=O)N1CCN(C(=O)[C@@H]2CC[C@@H]3CCCC[C@H](NC(=O)c4cc5cc(C(F)(F)P(=O)(O)O)ccc5s4)C(=O)N32)CC1 [Compound 87, ((2-(((3S,6S,10aS)-3-(4-(N,N-dimethylsulfamoyl)piperazine-1-carbonyl)-5-oxodecahydropyrrolo [1,2-a]azocin-6-yl)carbamoyl)benzo[b]thiophen-5-yl)difluoromethyl) phosphonic acid]	
3000 to 30000	< 100			O=C(N[C@H]1CCC[C@H]2CC[C@@H](C(=O)N3CC(c4cnccc4N4CC5(COC5)C4)C3)N2C1=O)c1cc2cc(CP(=O)(O)O)ccc2s1 [Compound 704, ((2-(((3S,6S,9aS)-3-(3-(4-(2-oxa-6-azaspiro[3.3]heptan-6-yl)pyridin-3-yl)azetidine-1-carbonyl)-5-oxooctahydro-1H-pyrrolo[1,2-a]azepin-6-yl)carbamoyl)benzo [b]thiophen-5-yl)methyl) phosphonic acid]	
3000 to 30000	< 100			Cc1cc(C2CN(C(=O)[C@@H]3CC[C@@H]4CCC[C@H](NC(=O)c5cc6cc(C(F)P(=O)(O)O)ccc6s5)C(=O)N43)C2)ccn1 (stereo partly drawn) [Compound 769, (fluoro(2-(((3S,6S,9aS)-3-(3-(2-methylpyridin-4-yl)azetidine-1-carbonyl)-5-oxooctahydro-1H-pyrrolo[1,2-a]azepin-6-yl)carbamoyl)benzo [b]thiophen-5-yl)methyl) phosphonic acid]	
3000 to 30000	< 100			N#CC1CN(c2ccncc2C2CN(C(=O)[C@@H]3CC[C@@H]4CCC[C@H](NC(=O)c5cc6cc(CP(=O)(O)O)ccc6s5)C(=O)N43)C2)C1 [Compound 680, ((2-(((3S,6S,9aS)-3-(3-(4-(3-cyanoazetidin-1-yl)pyridin-3-yl)azetidine-1-carbonyl)-5-oxooctahydro-1H-pyrrolo[1,2-a]azepin-6-yl)carbamoyl)benzo [b]thiophen-5-yl)methyl) phosphonic acid]	

Compound	IC50 [1, 3] [nM]	IC50 [2, 4] [nM]	IC50 [1, 5] [nM]	IC50 [2, 6] [nM]	IC50 ([1]; STAT6 (W123-T658) 250 nM, probe 5-FAM-ApYKPFQDLI-NH2 2 nM, read-out: STAT6 (FP assay IC50 class)) [nM]
((S)-(2- (((3S,6S,9aS)-3- ((6S,7R)-7-cyano-6- (pyridin-3-yl)-4- azaspiro[2.4] heptane-4- carbonyl)-5- oxooctahydro-1H- pyrrolo[1,2- a]azepin-6- yl)carbamoyl)benzo [b]thiophen-5- yl)fluoromethyl) phosphonic acid [Compound 838]		1000 to 10000			≤ 300
